Test results taken from US8536196B2, “Substituted 1,3-dioxanes useful as PPAR modulators” (Evolva SA, priority 2007, dated 2013).

Key:
Type in all cases: cell-based
[1] = target: T1, full length human PPARgamma (hPPARg2) (Homo sapiens, UniProt P37231); test: Transactivation assay with full length human PPARgamma
T1 construct: expressed in transfected cells
T1 sequence (P37231 1-505): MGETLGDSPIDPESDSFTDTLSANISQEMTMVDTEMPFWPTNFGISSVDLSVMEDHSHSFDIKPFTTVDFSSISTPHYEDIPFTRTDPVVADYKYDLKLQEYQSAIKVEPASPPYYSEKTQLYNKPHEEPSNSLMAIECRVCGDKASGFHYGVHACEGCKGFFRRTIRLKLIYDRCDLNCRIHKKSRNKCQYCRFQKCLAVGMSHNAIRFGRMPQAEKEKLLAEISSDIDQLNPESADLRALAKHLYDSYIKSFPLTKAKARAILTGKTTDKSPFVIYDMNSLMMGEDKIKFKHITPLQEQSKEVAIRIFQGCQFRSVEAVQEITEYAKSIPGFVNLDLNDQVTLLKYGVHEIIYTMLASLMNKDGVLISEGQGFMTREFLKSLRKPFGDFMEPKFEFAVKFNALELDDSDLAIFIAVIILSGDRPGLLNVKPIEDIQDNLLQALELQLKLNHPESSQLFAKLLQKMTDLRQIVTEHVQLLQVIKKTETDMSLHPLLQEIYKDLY
Experimental: When this assay was carried out essentially as described above but with the full length human PPARgamma rather than with the PPARgamma ligand binding domain, activation of full-length hPPARg2 was seen to 64% of the Avandia positive control (FIG. 3).

mPPARdeltaLBD = target: T2, mPPARdeltaLBD (Mus musculus, UniProt P35396); test: PPARdelta transactivation assay
T2 construct: expressed in transfected cells
T2 sequence (P35396 210-438 limits assumed): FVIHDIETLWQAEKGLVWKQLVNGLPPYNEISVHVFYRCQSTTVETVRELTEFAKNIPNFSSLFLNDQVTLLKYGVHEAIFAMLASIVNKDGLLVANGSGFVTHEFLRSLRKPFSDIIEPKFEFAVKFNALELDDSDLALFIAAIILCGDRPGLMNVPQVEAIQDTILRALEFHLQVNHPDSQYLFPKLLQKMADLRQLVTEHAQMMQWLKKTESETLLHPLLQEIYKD
Experimental: This example describes a transactivation assay for determining PPARdelta modulating activity.
DPD and other ligands are tested for their ability to transactivate PPARdelta essentially as described in Example 22.

hRXRαLBD = target: T3, hRXRαLBD (Homo sapiens, UniProt P19793); test: RXR transactivation assay
T3 construct: expressed in transfected cells
T3 sequence (P19793 227-458 limits assumed): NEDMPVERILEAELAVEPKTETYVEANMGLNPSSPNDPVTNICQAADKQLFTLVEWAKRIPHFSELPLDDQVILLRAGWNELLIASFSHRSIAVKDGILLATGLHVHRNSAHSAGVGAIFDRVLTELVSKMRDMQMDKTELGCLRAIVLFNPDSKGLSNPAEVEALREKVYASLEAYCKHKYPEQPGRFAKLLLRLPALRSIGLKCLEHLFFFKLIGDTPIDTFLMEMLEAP
Experimental: This example describes a retinoic acid X receptor transactivation assay.
Compounds are tested for their ability to transactivate RXR essentially as described in Example 22.

[2] = tested on: human cervical carcinoma cell line (HeLa); test: Inhibition of cancer cell proliferation (flow cytometry); conditions: 48 hours of treatment, read-out: inhibition of proliferation of HeLa cells
Experimental: A human cervical carcinoma cell line (HeLa) engineered to stably express a recombinant biosensor reporter activity and a non-cancer cell line, HaCaT (Boukamp et al., 1988, J. Cell Biol 106(3):761-771) was used with a Caspa Tag kit (commercially available eg from Chemicon). The detection of proliferation was carried out using a high content screening automated flow cytometer.
DPD (Substance 1) was diluted to 20 μM in cell culture medium without serum adjusted to 1% DMSO. Detection of cellular events was performed in duplicate in 96-well plates after 48 hours of treatment in the FL2 (dilution of a proliferative marker) channels of a HTS flow cytometer (FACS Calibur HTS, Becton Dickenson). At day 1, cells were seeded in 96 well plates. Cells were treated with DPD and the appropriate controls on day 2 and analysis was carried out on day 4.

activation of full-length hPPARg2, % of the Avandia positive control [1]: 64% | increase in PPARdelta transactivation (mPPARdeltaLBD): no or little increase in transactivation | increase in RXR transactivation (hRXRαLBD): no transactivation
Compound: O=C(O)CC/C=C\CC1COC(c2ccccc2Cl)OC1c1ccccc1O (racemic) [SN1, (Z)-6-(-2-(2-chlorophenyl)-4-(2-hydroxyphenyl)-1,3-dioxan-5-yl)hex-4-enoic acid]
inhibition at 20 µM [2]: 90%
